In patent publication US11234420B2, “Method for constructing PD-1 gene modified humanized animal model and use thereof” (priority 2016, dated 2022):
Several values for one entry are separate records, joined by “and”; a condition that tells them apart may be missing. Identical values can stand only once. Entries after “also recorded” stand apart in the source; their conditions may differ.

Columns and labels:
Type in all cases: in vivo
[1] = tested on: mouse colon cancer cells MC38-hPDL1; experiment: Combined use of Cisplatin with Keytruda or Tecentriq (Example 11), MC38-hPDL1 tumors in B-hPD-1 mice; conditions: for Tumor volume Day 8: Day 8, group division, Cisplatin 10 mg/kg intravenous once, Keytruda 0.1 mg/kg i.p. once per 3 days x6, Tecentriq 1 mg/kg i.p. once per 2 days x8; for Tumor volume Day 18 / Tumor volume Day 25: doses as Table 9 (Cisplatin 10, Keytruda 0.1, Tecentriq 1 mg/kg); for Tumor volume Day 25: Day 25, end-point; for Tumor free situation: end-point; for weight change compared among groups: mouse, in vivo
Procedure: B-hPD-1 homozygous mice (4-6 weeks old) were taken, 5×10^5 mouse colon cancer cells MC38-hPDL1 were subcutaneously inoculated at right side (the same as Example 10). When the tumor volume was about 100 mm^3, the mice were randomly divided into 6 control groups or treatment groups (n=7/group). For the treatment group, one or two of the above 3 drugs were randomly injected, the dosages were 0.1-10 mg/kg, and a blank solvent was injected for the control group. The tumor volume was measured and the mice were weighed twice a week. Moreover, euthanasia was performed when the tumor volume of a single mouse reached 3000 mm^3.

[2] = tested on: mouse colon cancer cells MC38; experiment: Keytruda antibody efficacy pre-experiment (Example 10, Experiment 1), MC38 tumors in B-hPD-1 mice
Procedure: (§1) B-hPD-1 homozygous mice (4-6 weeks old) were taken, mouse colon cancer cells MC38 or modified MC38-hPDL1 (i.e., PD-L1 gene humanized MC38 cells) were subcutaneously inoculated. When the tumor volume was about 100 mm^3, the mice were randomly divided into a control group or a treatment group. For the treatment group, one of the above 2 antibodies was randomly selected and administered at different dosages (0.3-25 mg/kg), and the same volume of a blank solvent was injected for the control group. The tumor volume was measured twice a week and the body weight were measured for each mouse. Moreover, euthanasia was performed when the tumor volume of a single mouse reached 3000 mm^3. The specific experiment scheme was as follows:
Experiment 1 Keytruda antibody efficacy pre-experiment (n=6/group): after subcutaneous inoculation of MC38 cells to mice (5×10^5/100 μL PBS), the anti-human PD-1 antibody Keytruda was administered to the treatment group at 25 mg/kg through intraperitoneal injection, and the same volume of a blank solvent was injected for the control group; the administration frequency was one administration per 3 days for a total of 6 administrations;

[3] = tested on: mouse colon cancer cells MC38; experiment: Keytruda antibody efficacy at different dosages (Example 10, Experiment 2), MC38 tumors in B-hPD-1 mice; conditions: for Tumor volume Day 8: once per 3 days x6, Day 8, group division; for Tumor volume Day 32: Day 32, end-point; for Survival situation / Tumor free situation: end-point
Procedure: as §1
Experiment 2 Keytruda antibody efficacy experiments at different dosages: after subcutaneous inoculation of MC38 cells to mice (5×10^5/100 μL PBS), the anti-human PD-1 antibody Keytruda was administered to the treatment group (n=6/group) through intraperitoneal injection at different dosages (0.3-10 mg/kg), and the same volume of a blank solvent was injected for the control group (n=10/group); the administration frequency was one administration per 3 days for a total of 6 administrations;

[4] = tested on: modified mouse colon cancer cells MC38-hPDL1; experiment: Tecentriq antibody efficacy pre-experiment (Example 10, Experiment 3), MC38-hPDL1 tumors in B-hPD-1 mice
Procedure: as §1
Experiment 3 Tecentriq antibody efficacy pre-experiment (n=7/group): subcutaneous inoculation of MC38-PDL1 (5×10^5/100 μL PBS), the […] Tecentriq was administered to the treatment group at 3 mg/kg through intraperitoneal injection, and the same volume of a blank solvent was injected for the control group; the administration frequency was one administration per week for a total of 2 weeks;

[5] = tested on: modified mouse colon cancer cells MC38-hPDL1; experiment: Tecentriq antibody efficacy at different dosages (Example 10, Experiment 4), MC38-hPDL1 tumors in B-hPD-1 mice; conditions: for Tumor volume Day 8: once per 2 days x8, Day 8, group division; for Tumor volume Day 33: Day 33, end-point; for Survival situation / Tumor free situation: end-point
Procedure: as §1
Experiment 4 Tecentriq antibody efficacy experiments at different dosages (n=5/group): subcutaneous inoculation of MC38-PDL1 (2×10^5/100 μL PBS), the […] Tecentriq was administered to the treatment group through intraperitoneal injection at 1-10 mg/kg, and the same volume of a blank solvent was injected for the control group; the administration frequency was one administration per 2 days for a total of 8 administrations;

[6] = tested on: mouse colon cancer cells MC38-hPDL1; experiment: Screening anti-human PD-L1 antibodies (Example 12, Experiment 1), MC38-hPDL1 tumors in B-hPD-1 mice
Procedure: Experiment 1: B-hPD-1 homozygous mice (4-6 weeks old) were taken, 5×10^5 mouse colon cancer cells MC38-hPDL1 were subcutaneously inoculated at right side (the same as Example 10). When the tumor volume was about 100 mm^3, the mice were randomly divided into the control group or treatment groups (n=5/group). For the treatment group, the positive control Tecentriq or one of two anti-human PD-L1 antibodies was randomly selected, all dosages were 3 mg/kg, and a blank solvent was injected for the control group. The administration manner was intraperitoneal injection, once per 2 days for a total of 8 times. The tumor volume was measured twice a week. Moreover, euthanasia was performed when the tumor volume of a single mouse reached 3000 mm^3.

With `N.N.[Cl][Pt][Cl]` [Cisplatin] the “Tumor volume Day 8” value [1] was 98 ± 24 mm^3, the “Tumor volume Day 18” value [1] was 401 ± 249 mm^3 and the “Tumor volume Day 25” value [1] was 612±510 mm^3. The TGITV % ([1]; doses as Table 9) was 68.2%, the “tumor volume compared with control or single-drug groups” value ([1]; doses as Table 9, in words) was “has certain tumor inhibitory effect” and the Tumor free situation ([1]; doses as Table 9) was 0/5. For the same compound, the “weight change compared among groups” value [1] was “no significant difference in average weight increase” and the mice died ([1]; n=7/group, by experiment end-point) was 2.

For “Keytruda: humanized monoclonal antibody from Merck & Co.; human PD-1 antibody”, the “Tumor volume Day 6” value ([2]; 25 mg/kg intraperitoneal, once per 3 days, 6 administrations, Day 6, group division) was 169 ± 24 mm3, the “Tumor volume Day 18” value ([2]; 25 mg/kg intraperitoneal, once per 3 days, 6 administrations, Day 18) was 302 ± 86 mm3 and the “Tumor volume Day 26” value ([2]; 25 mg/kg intraperitoneal, once per 3 days, 6 administrations, Day 26, end-point) was 111±77 mm3. The TGITV % ([2]; 25 mg/kg, Tumor Growth Inhibition Value) was 102%, the Survival situation ([2]; 25 mg/kg, end-point Day 26) was 100% and the Tumor free situation ([2]; 25 mg/kg, end-point Day 26, tumor-free mice/mice) was 2 of the 6 and 2/6. The “average tumor volume compared with control group” value ([2]; 25 mg/kg, in words) was “tumor volume obviously smaller than that of the control group; also recorded: obviously smaller than that of the G1 control group”, the “toxicity on the animals” value ([2]; 25 mg/kg, in words) was “does not have obvious toxicity on the animals” and the TGITV % ([3]; 0.3 mg/kg) was 78.2%. For the same compound, the “Tumor volume Day 8” value ([3]; 0.3 mg/kg i.p.) was 113 ± 28 mm^3, the “Tumor volume Day 22” value ([3]; 0.3 mg/kg) was 115 ± 116 mm^3 and the “Tumor volume Day 32” value ([3]; 0.3 mg/kg) was 437±515 mm^3. The Survival situation ([3]; 0.3 mg/kg) was 6/6, the Tumor free situation ([3]; 0.3 mg/kg) was 1/6 and the TGITV % ([3]; 1 mg/kg) was 94.0%. The “Tumor volume Day 8” value ([3]; 1 mg/kg i.p.) was 112 ± 27 mm^3, the “Tumor volume Day 22” value ([3]; 1 mg/kg) was 89 ± 86 mm^3 and the “Tumor volume Day 32” value ([3]; 1 mg/kg) was 201±186 mm^3. The Survival situation ([3]; 1 mg/kg) was 6/6, the Tumor free situation ([3]; 1 mg/kg) was 2/6 and the TGITV % ([3]; 3 mg/kg) was 89.0%. The “Tumor volume Day 8” value ([3]; 3 mg/kg i.p.) was 113 ± 25 mm^3, the “Tumor volume Day 22” value ([3]; 3 mg/kg) was 88 ± 94 mm^3 and the “Tumor volume Day 32” value ([3]; 3 mg/kg) was 277±397 mm^3. For the same compound, the Survival situation ([3]; 3 mg/kg) was 6/6, the Tumor free situation ([3]; 3 mg/kg) was 2/6 and the TGITV % ([3]; 10 mg/kg) was 92.4%. The “Tumor volume Day 8” value ([3]; 10 mg/kg i.p.) was 110 ± 28 mm^3, the “Tumor volume Day 22” value ([3]; 10 mg/kg) was 117 ± 111 mm^3 and the “Tumor volume Day 32” value ([3]; 10 mg/kg) was 223±270 mm^3. For the same compound, the Survival situation ([3]; 10 mg/kg) was 6/6, the Tumor free situation ([3]; 10 mg/kg) was 2/6 and the “average tumor volume compared with control group” value ([3]; 0.3, 1, 3 and 10 mg/kg, in words) was “tumor volume obviously smaller than that of the control group; also recorded: obviously smaller than that of the G1 control group”. The “Tumor volume Day 8” value [1] was 98 ± 30 mm^3, the “Tumor volume Day 18” value [1] was 606 ± 247 mm^3 and the “Tumor volume Day 25” value [1] was 1267±619 mm^3. For the same compound, the TGITV % ([1]; doses as Table 9) was 27.7%, the Tumor free situation ([1]; doses as Table 9) was 0/7 and the “weight change compared among groups” value [1] was “no significant difference in average weight increase”.

For “Tecentriq: fully humanized monoclonal antibody from Genentech under Roche; human PD-L1 antibody”, the TGITV % ([4]; 3 mg/kg) was 79.7%, the “Tumor volume Day 6” value ([4]; 3 mg/kg intraperitoneal, once per week, 2 weeks, Day 6, group division) was 88 ± 8 mm3 and the “Tumor volume Day 17” value ([4]; 3 mg/kg, Day 17) was 208 ± 72 mm3. The “Tumor volume Day 20” value ([4]; 3 mg/kg, Day 20, end-point) was 237±89 mm3, the Survival situation ([4]; 3 mg/kg, end-point) was 7/7 and the Tumor free situation ([4]; 3 mg/kg, end-point) was “no mouse cured in the treatment group and 0/7”. For the same compound, the “average tumor volume compared with control group” value ([4]; 3 mg/kg, in words) was “tumor volume obviously smaller than that of the control group”, the “toxicity on the animals” value ([4]; 3 mg/kg, in words) was “does not have obvious toxicity on the animals” and the TGITV % ([5]; 1 mg/kg) was 61.2%. For the same compound, the “Tumor volume Day 8” value ([5]; 1 mg/kg i.p.) was 144 ± 31 mm^3, the “Tumor volume Day 22” value ([5]; 1 mg/kg) was 506 ± 289 mm^3 and the “Tumor volume Day 33” value ([5]; 1 mg/kg) was 1044±432 mm^3. For the same compound, the Survival situation ([5]; 1 mg/kg) was 5/5, the Tumor free situation ([5]; 1 mg/kg) was 0/5 and the TGITV % ([5]; 3 mg/kg) was 93.7%. The “Tumor volume Day 8” value ([5]; 3 mg/kg i.p.) was 147 ± 38 mm^3, the “Tumor volume Day 22” value ([5]; 3 mg/kg) was 418 ± 268 mm^3 and the “Tumor volume Day 33” value ([5]; 3 mg/kg) was 1028±963 mm^3. For the same compound, the Survival situation ([5]; 3 mg/kg) was 5/5, the Tumor free situation ([5]; 3 mg/kg) was 0/5 and the TGITV % ([5]; 10 mg/kg) was 97.2%. The “Tumor volume Day 8” value ([5]; 10 mg/kg i.p.) was 153 ± 62 mm^3, the “Tumor volume Day 22” value ([5]; 10 mg/kg) was 68 ± 75 mm^3 and the “Tumor volume Day 33” value ([5]; 10 mg/kg) was 219±326 mm^3. For the same compound, the Survival situation ([5]; 10 mg/kg) was 5/5, the Tumor free situation ([5]; 10 mg/kg) was 3/5 and the “average tumor volume compared with control group” value ([5]; 1-10 mg/kg, in words) was “tumor volume obviously smaller than that of the control group; also recorded: obviously smaller than that of the G1 control group”. For the same compound, the “Tumor volume Day 8” value [1] was 98 ± 26 mm^3, the “Tumor volume Day 18” value [1] was 688 ± 409 mm^3 and the “Tumor volume Day 25” value [1] was 1234±977 mm^3. For the same compound, the TGITV % ([1]; doses as Table 9) was 29.8%, the Tumor free situation ([1]; doses as Table 9) was 0/7 and the “weight change compared among groups” value [1] was “no significant difference in average weight increase”. For the same compound, the TGITV % ([6]; 3 mg/kg) was 112.2%, the “Tumor volume Day 10” value ([6]; 3 mg/kg i.p., once per 2 days x8, Day 10, group division) was 111 ± 25 mm^3 and the “tumor volume / therapeutic effect compared with control and Tecentriq” value ([6]; 3 mg/kg, same dosage and frequency, in words) was “significant difference in the volume of tumors between G2 or G3 and the control group (G1)”. For the same compound, the “Tumor volume Day 20” value ([6]; 3 mg/kg, Day 20) was 60 ± 70 mm^3, the “Tumor volume Day 27” value ([6]; 3 mg/kg, Day 27, end-point) was 75±113 mm^3 and the Survival situation ([6]; 3 mg/kg, end-point) was 5/5. For the same compound, the Tumor free situation ([6]; 3 mg/kg, end-point) was 0/5 and the “animal weight / tolerance compared with control group” value ([6]; 3 mg/kg, in words) was “no significant difference in average weight increase”.
